According to patent US10179143B2, “Anti-viral azide containing compounds” (LIFE TECHNOLOGIES CORPORATION, priority 2010, dated 2019):

Legend:
[1] = system: Nuclear-GFP BacMam 2.0 Virus; assay: Infectivity of PTM analog-labeled Nuclear-GFP BacMam 2.0 virus in U2-OS cells (nuclear-GFP expression); format: cell-based, baculovirus; settings: BacMam virus labeled in Sf9 insect cells with 50 μM analog for 4 days; 20 or 50 uL virus on U2-OS cells overnight; FIG. 5
Excerpt: Inhibition of insect cell baculovirus infectivity with azido fatty acid analogs: The BacMam system uses a modified insect cell virus (baculovirus) as a vehicle to efficiently deliver and express genes in mammalian cells. A Nuclear-GFP BacMam 2.0 expression system (Invitrogen, C10602) was used as a model to determine if PTM analog labeling of the virus would affect mammalian cell infectivity. Viruses were labeled with various PTM analogs and used to infect mammalian cells. Infectivity was determined by the expression of nuclear-GFP, as viral entry into the cell is required for expression of GFP protein. […]
Characterization of BacMam virus production: To verify, quantitate, and normalize the amount of enriched viruses obtained from insect cell supernatants, samples of each virus were lysed in SDS sample preparation buffer (SPB), sonicated with a probe tip sonicator, and heated at 90C to completely dissolve the viral proteins. Viral protein concentrations of the lysates were then determined. […]
Mammalian cell infection protocol: To determine if the PTM analog-labeled viruses retain the ability to infect mammalian cells, 50,000 U2-OS cells (human osteosarcoma cell line) were plated onto a 6 well-chamber glass bottom plate. […] The following day cells were imaged on AMG EVOS fluorescence microscope at 10× or 20× magnification using both white light and GFP filters (FIG. 5). […]

HIV = assay: Luciferase reporter assay of infectivity of azide-labeled HIV on TZM/BI reporter cells; format: cell-based, HIVNL4-3; settings: virus produced in CEMx174 cells spiked with the compound (fatty acids 50-100 μM, sugars 20-40 μM); normalized to p24; 12 hours on TZM/BI; single cycle replication system; FIGS. 3 and 4
Method: CEMx174 cells were transfected with HIVNL4-3 in a T-150 flask and the virus production was monitored by reverse transcriptase activity until peak virus production occurred (usually 7 to 9 days post transfection). Prior to transfection, the CEMx174 cells were spiked with the following azide-modified biomolecules: 15-azidopentadecanoic acid (50-100 μM), 12-azidododecanoic acid (50-100 μM), tetraacetylated N-azidoacetylgalactosamine (20-40 μM), and tetraacetylated N-azidoacetyl-D-mannosamine (20-40 μM).
Labeled virus was also obtained from the transfected cells. More specifically, virus-containing supernatants were collected and virus was purified through 20% sucrose as previously described (Graham, D.R. et al., Proteomics 2008, 8:4919-30). The purified virus was then mixed with the CLICK-IT® detection reagent, tetramethylrhodamine (TAMRA) alkyne and the CLICK-IT® Protein Reaction Buffer Kit (Invitrogen, Carlsbad, Calif.). Virus samples were run on a one-dimensional gel to reveal azide-labeled viral proteins (FIG. 2). […]
To examine the effect of the azide-modified biomolecules on the innate biology of the virus, the azide-labeled virus from the transfected cells was isolated and tested in cell infection studies. […] Viral infectivity was determined by measuring cellular luciferase activities with two different luciferase reagents.

## [N-]=[N+]=NCCCCCCCCCCCC(=O)O [12-azidododecanoic acid]
[1]
  nuclear-GFP expression in U2-OS cells (viral entry): no nuclear-GFP expression
HIV
  impact on the infectivity of the virus (cellular luciferase activities): profound impact on the infectivity of the virus

## [N-]=[N+]=NCCCCCCCCCCCCCCC(=O)O [15-azidopentadecanoic acid]
[1]
  nuclear-GFP expression in U2-OS cells (viral entry): no nuclear-GFP expression
